In ChEMBL document CHEMBL1153705, “Evaluation and optimization of antifibrotic activity of cinnamoyl anthranilates” (Bioorg Med Chem Lett, 2009):
Calls of active or inactive are those of the source. The calls are words filed in the database; no cut-off is given here.

What was measured:
[1] = Antifibrotic activity in rat 1097 cells assessed as inhibition of TGF-beta-stimulated [3H]proline incorporation in to collagen at 30 uM; assay type: functional
[2] = system: Rattus norvegicus; experiment: Reduction in albuminuria in STZ-induced Ren2 rat at 400 mg/kg/day after 24 hrs by radioimmunoassay; assay type: functional, organism-based
[3] = system: Rattus norvegicus; experiment: Reduction in albuminuria in STZ-induced Ren2 rat at 200 mg/kg/day after 24 hrs by radioimmunoassay; assay type: functional, organism-based
[4] = (§1) Antifibrotic activity in rat 1097 cells assessed as inhibition of TGF-beta-stimulated [3H]proline incorporation in to collagen at 100 uM; assay type: functional
[5] = species on record: Rattus norvegicus; experiment: Antifibrotic activity in rat 1097 cells assessed as damaged cells at 100 uM; assay type: functional, cell-based
[6] = Toxicity against rat 1097 cells at 100 uM; assay type: cell-based
[7] = Toxicity against rat 1097 cells at 30 uM; assay type: cell-based
[8] = system: 1097; experiment: Antifibrotic activity in rat 1097 cells assessed as necrotic cells at 100 uM; assay type: functional, cell-based
[9] = system: 1097; experiment: Antifibrotic activity in rat 1097 cells assessed as necrotic cells at 30 uM; assay type: functional, cell-based
[10] = Antifibrotic activity in rat 1097 cells assessed as inhibition of TGF-beta-stimulated [3H]proline incorporation in to collagen at 10 uM; assay type: functional
[11] = species on record: Rattus norvegicus; experiment: as §1; assay type: functional

**Q.** What does the source list for `C#CCOc1ccc(/C=C/C(=O)Nc2ccccc2C(=O)O)cc1OC` [ASENGEPRAST]?
**A.** inhibition at 30 µM [1]: 55%; Activity [2]: Active; Activity [3]: Active; inhibition at 100 µM [4]: 80%

**Q.** With `COc1ccc(/C=C/C(=O)Nc2ccccc2C(=O)O)cc1O` as the compound, how does the inhibition at 100 µM [4] read?
**A.** The inhibition at 100 µM was 50%.

**Q.** With `C#CCCCOc1cc(/C=C/C(=O)Nc2ccccc2C(=O)O)ccc1OC` as the compound, how does the Activity [5] read?
**A.** Its Activity is “Active”.

**Q.** What about the inhibition at 30 µM [1] of the same compound?
**A.** Its inhibition at 30 µM is 80%.

**Q.** Which Activity [6] does the source give for `CCC#CCOc1ccc(/C=C/C(=O)Nc2ccccc2C(=O)O)cc1OC` here?
**A.** The Activity was “Toxic”.

**Q.** What about the inhibition at 30 µM [1] of the same compound?
**A.** Its inhibition at 30 µM is 100%.

**Q.** And the Activity [7]?
**A.** Its Activity is “Non-toxic”.

**Q.** What about the inhibition at 100 µM [4] of the same compound?
**A.** Its inhibition at 100 µM is 100%.

**Q.** Which inhibition at 30 µM [1] does the source give for `COc1ccc(/C=C/C(=O)Nc2ccccc2C(=O)O)cc1OC` [TRANILAST] here?
**A.** Its inhibition at 30 µM is 40%.

**Q.** What about the inhibition at 100 µM [4] of the same compound?
**A.** The inhibition at 100 µM was 70%.

**Q.** Which results are given for `C#CCCOc1ccc(/C=C/C(=O)Nc2ccccc2C(=O)O)cc1OC`?
**A.** inhibition at 30 µM [1]: 70%; inhibition at 100 µM [4]: 100%

**Q.** Which results are given for `CCC#CCCOc1cc(/C=C/C(=O)Nc2ccccc2C(=O)O)ccc1OC`?
**A.** inhibition at 30 µM [1]: 100%; inhibition at 100 µM [4]: 100%

**Q.** Which inhibition at 100 µM [4] does the source give for `COc1ccc(/C=C/C(=O)Nc2ccccc2)cc1OC` here?
**A.** Its inhibition at 100 µM is 50%.

**Q.** For `C#CCCCCOc1ccc(/C=C/C(=O)Nc2ccccc2C(=O)O)cc1OC`, which Activity [5] is on record?
**A.** The Activity was “Active”.

**Q.** And the inhibition at 30 µM [1]?
**A.** The inhibition at 30 µM was 80%.

**Q.** Which inhibition at 30 µM [1] does the source give for `C#CCCCOc1ccc(/C=C/C(=O)Nc2ccccc2C(=O)O)cc1OC` here?
**A.** The inhibition at 30 µM was 75%.

**Q.** And the inhibition at 100 µM [4]?
**A.** The inhibition at 100 µM was 100%.

**Q.** What does the source list for `CC#CCOc1ccc(/C=C/C(=O)Nc2ccccc2C(=O)O)cc1OC`?
**A.** inhibition at 30 µM [1]: 65%; inhibition at 100 µM [4]: 90%

**Q.** For `CCCCC#CCCOc1cc(/C=C/C(=O)Nc2ccccc2C(=O)O)ccc1OC`, which Activity [8] is on record?
**A.** The Activity was “Active”.

**Q.** And the Activity [9]?
**A.** Its Activity is “Active”.

**Q.** Which results are given for `COc1cc(/C=C/C(=O)Nc2ccccc2C(=O)O)ccc1OC1CCC1`?
**A.** Activity [5]: Active; inhibition at 10 µM [10]: 60%

**Q.** What does the source list for `COc1cc(/C=C/C(=O)Nc2ccccc2C(=O)O)ccc1OC1CCCC1`?
**A.** Activity [6]: Toxic; Activity [5]: Active; inhibition at 30 µM [1]: 100%; Activity [7]: Non-toxic

**Q.** Which inhibition at 100 µM [4] does the source give for `COc1cccc(/C=C/C(=O)Nc2ccccc2C(=O)O)c1` here?
**A.** Its inhibition at 100 µM is 40%.

**Q.** For `CCC#CCOc1cc(/C=C/C(=O)Nc2ccccc2C(=O)O)ccc1OC`, which Activity [6] is on record?
**A.** Its Activity is “Toxic”.

**Q.** And the inhibition at 30 µM [1]?
**A.** The inhibition at 30 µM was 90%.

**Q.** And the Activity [7]?
**A.** The Activity was “Non-toxic”.

**Q.** What about the inhibition at 100 µM [4] of the same compound?
**A.** The inhibition at 100 µM was 100%.

**Q.** For `COc1ccc(/C=C/C(=O)Nc2ccccc2C(N)=O)cc1OC`, which inhibition at 100 µM [4] is on record?
**A.** Its inhibition at 100 µM is 35%.

**Q.** Which inhibition [11] does the source give for `O=C(/C=C/c1ccccc1)Nc1ccccc1C(=O)O` here?
**A.** Its inhibition is “inactive”.

**Q.** Which inhibition at 30 µM [1] does the source give for `C#CCCCCOc1cc(/C=C/C(=O)Nc2ccccc2C(=O)O)ccc1OC` here?
**A.** Its inhibition at 30 µM is 95%.

**Q.** What about the inhibition at 100 µM [4] of the same compound?
**A.** The inhibition at 100 µM was 100%.

**Q.** Which Activity [8] does the source give for `COc1cc(/C=C/C(=O)Nc2ccccc2C(=O)O)ccc1OC1CCCCC1` here?
**A.** The Activity was “Active”.

**Q.** And the Activity [9]?
**A.** Its Activity is “Active”.

**Q.** Which inhibition at 30 µM [1] does the source give for `CC#CCOc1cc(/C=C/C(=O)Nc2ccccc2C(=O)O)ccc1OC` here?
**A.** The inhibition at 30 µM was 75%.

**Q.** And the inhibition at 100 µM [4]?
**A.** Its inhibition at 100 µM is 80%.

**Q.** With `COc1ccc(CCC(=O)Nc2ccccc2C(=O)O)cc1OC` as the compound, how does the inhibition [11] read?
**A.** The inhibition was “inactive”.

**Q.** For `O=C(/C=C/c1ccc(O)c(O)c1)Nc1ccccc1C(=O)O`, which inhibition at 100 µM [4] is on record?
**A.** The inhibition at 100 µM was 90%.

**Q.** For `CCCCC#CCCOc1ccc(/C=C/C(=O)Nc2ccccc2C(=O)O)cc1OC`, which Activity [9] is on record?
**A.** Its Activity is “Active”.

**Q.** For `COc1cc(/C=C/C(=O)Nc2ccccc2C(=O)O)ccc1OC1CCCCCCC1`, which Activity [8] is on record?
**A.** Its Activity is “Active”.

**Q.** What about the Activity [9] of the same compound?
**A.** The Activity was “Active”.

**Q.** Which Activity [5] does the source give for `CCC#CCCOc1ccc(/C=C/C(=O)Nc2ccccc2C(=O)O)cc1OC` here?
**A.** The Activity was “Active”.

**Q.** What about the inhibition at 30 µM [1] of the same compound?
**A.** Its inhibition at 30 µM is 100%.

**Q.** What does the source list for `COc1cc(/C=C/C(=O)Nc2ccccc2C(=O)O)ccc1OC1CCCCCC1`?
**A.** Activity [8]: Active; Activity [9]: Active

**Q.** For `COc1cc(/C=C/C(=O)Nc2ccccc2C(=O)O)ccc1O`, which inhibition at 100 µM [4] is on record?
**A.** The inhibition at 100 µM was 50%.

**Q.** Which inhibition [11] does the source give for `COc1ccc(/C=C/C(=O)Nc2ccccc2C(=O)O)cc1` here?
**A.** Its inhibition is “inactive”.

**Q.** With `C#CCCOc1cc(/C=C/C(=O)Nc2ccccc2C(=O)O)ccc1OC` as the compound, how does the Activity [5] read?
**A.** The Activity was “Active”.

**Q.** What about the inhibition at 30 µM [1] of the same compound?
**A.** Its inhibition at 30 µM is 65%.

**Q.** What does the source list for `C#CCOc1cc(/C=C/C(=O)Nc2ccccc2C(=O)O)ccc1OC`?
**A.** inhibition at 30 µM [1]: 60%; inhibition at 100 µM [4]: 90%
